Assay [1] has as its system male C57BL mice. Briefly: In vivo stimulation of stomach growth, 200 nmol/kg (Example 12). The procedure:
The effects of the test compounds according to the invention were determined based on the ability of the peptides to selectively increase stomach mass, relative to vehicle control. The ability of the present compounds (ZP2395, ZP2396, ZP2400, ZP2412, ZP2394 and ZP2401) to selectively stimulate stomach mass, relative to colon mass was determined in male C57BL mice. Individual groups (n=6-10) of mice were given 200 nmol/kg of each compound, s.c, once daily for three consecutive days. For comparison purposes other groups of animals were given either an equimolar dose of [[…]]GLP-2 or vehicle (phosphate buffered saline, pH 7.4) in the same dosing regimen. Twenty-four hours after the last dose of compound had been given the mice were sacrificed and the stomach and small intestine (from the pylorus to the ileocaecal junction) emptied and weighed. To correct for slight difference in body weight (BW), the organ mass of the stomach is presented relative to BW. […] To evaluate the differential growth pattern induced by ZP compounds, compared to [[…]]GLP-2, on the stomach, the stomach-colon sensitivity index of compound X was calculated as: (Stomach/Colon)x/Stomach/(Colon)[[…]]GLP-2% Compounds with a stomach/colon sensitivity greater than or equal to 1.05 were considered relatively selective for the stomach.

Assay [2] deals with male C57BL mice. As to the kind of experiment: In vivo stimulation of intestinal growth, 200 nmol/kg (Example 11). Conditions: for Sensitivity index Si/Colon: relative to 1559. The procedure:
The ability of further compounds to selectively stimulate small intestinal mass, relative to colon mass was determined in male C57BL mice. A similar protocol was used to that described above in Example 10 except that 200 nmol/kg of each compound was administered per day. Thus, individual groups (n=6-10) of mice were given 200 nmol/kg of each compound, s.c, once daily for three consecutive days. Other groups of animals were given either an equimolar dose of [[…]]GLP-2 (reference compound) or vehicle (phosphate buffered saline, pH 7.4; negative controls) in the same dosing regimen. Twenty-four hours after the last dose of compound the mice were sacrificed and the stomach, small intestine and the colon emptied and weighed.

Where [3] appears, read: 200 nmol/kg s.c. once daily for 3 days.
[4] abbreviates: 200 nmol/kg s.c. once daily for 3 days, relative to 1559.
[5] abbreviates: colon weight relative to body weight, relative to ZP1559.
Where [6] appears, read: small intestine weight relative to body weight, relative to ZP1559.

Results on twelve substances are retold here after patent US10092648B2, “Selective glucagon-like-peptide-2 (GLP-2) analogues” (Zealand Pharma A/S, priority 2006, dated 2018).

Values joined by “and” are separate entries in the source; they are usually repeats but may differ in a detail not shown here. Identical values can stand only once.

For “H-HGEGSFSDELATILEALAASDFISWLISTKITDKKKKKK-NH2 [ZP2381]”, the “Sto-BW, compared to 1559 in %” value in the assay on male C57BL mice [1] (setting [3]) turned out to be 92%. Further, the “Sensitivity index Stomach/Co” value in the assay on male C57BL mice [1] (setting [4]) was determined as 0.88. The “Sensitivity index Stomach/Co” value in the assay with male C57BL mice [1] (ratio Stomach-BW / Colon-BW) was found to be 0.88. In the assay on male C57BL mice [2] (setting [3]), the “Colon-BW, compared to 1559 in %” value came out at 104%; the “Preferential stimulation of epithelial growth in the small intestine (summary)” value is recorded as “preferentially stimulating epithelial growth in the small intestine”; the “SI-BW, compared to 1559 in %” value was 123%; the “Selectivity for small intestinal mass relative to colon mass (FIG. 6)” value is “selectively increase small intestinal mass, relative to colon mass”. Further, the “Sensitivity index Si/Colon” value with male C57BL mice [2] (setting [3]) is 1.18. Besides, the “Colon-BW, compared to 1559 in %” value in the assay on male C57BL mice [2] (setting [5]) is 104%. The “SI-BW, compared to 1559 in %” value with male C57BL mice [2] (setting [6]) was determined as 123%.
For “H-HGEGSFSDELATILEALAAADFISWLIATKITD-NH2 [ZP2418]”, the “Sto-BW, compared to 1559 in %” value in the assay on male C57BL mice [1] (setting [3]) stood at 91%. Also, the “Sensitivity index Stomach/Co” value in the assay with male C57BL mice [1] (setting [4]) stood at 0.91. Besides, the “Sensitivity index Stomach/Co” value in the assay on male C57BL mice [1] (ratio Stomach-BW / Colon-BW) was 0.91. Besides, in the assay with male C57BL mice [2] (setting [3]), the “Colon-BW, compared to 1559 in %” value was determined as 100%; the “Preferential stimulation of epithelial growth in the small intestine (summary)” value is given as “preferentially stimulating epithelial growth in the small intestine”; the “SI-BW, compared to 1559 in %” value is 117%; the “Selectivity for small intestinal mass relative to colon mass (FIG. 6)” value is given as “selectively increase small intestinal mass, relative to colon mass”. The “Sensitivity index Si/Colon” value with male C57BL mice [2] (setting [3]) is reported as 1.17. For the same substance, the “Colon-BW, compared to 1559 in %” value in the assay on male C57BL mice [2] (setting [5]) came to 100%. Further, in the assay with male C57BL mice [2] (setting [6]), the “SI-BW, compared to 1559 in %” value is on record as 117%.
As for “H-HGEGSFSDELSTILESLAAADFIAWLIATKITDKKKKKK-NH2 [ZP2403]”, in the assay with male C57BL mice [1] (setting [3]), the “Sto-BW, compared to 1559 in %” value came out at 107%. Moreover, in the assay with male C57BL mice [1] (setting [4]), the “Sensitivity index Stomach/Co” value came out at 0.98. For the same substance, in the assay with male C57BL mice [2] (setting [3]), the “Colon-BW, compared to 1559 in %” value is 109%; the “Organ selectivity (FIG. 8, unselective compounds)” value (“Organ selectivity” below) is given as “unselective for the small intestine, colon or stomach”; the “SI-BW, compared to 1559 in %” value is reported as 110%; the “Sensitivity index Si/Colon” value is 1.01.
Turning to “H-HGEGSFSDELSTILEALAASDFISWLISTKITDKKKKKK-NH2 [ZP2385]”, the “Sto-BW, compared to 1559 in %” value with male C57BL mice [1] (setting [3]) amounted to 93%. Also, the “Sensitivity index Stomach/Co” value in the assay on male C57BL mice [1] (setting [4]) was 0.98. In the assay with male C57BL mice [1] (ratio Stomach-BW / Colon-BW), the “Sensitivity index Stomach/Co” value is listed as 0.98. Besides, in the assay with male C57BL mice [2] (setting [3]), the “Colon-BW, compared to 1559 in %” value turned out to be 95%; the “Preferential stimulation of epithelial growth in the small intestine (summary)” value is reported as “preferentially stimulating epithelial growth in the small intestine”; the “SI-BW, compared to 1559 in %” value is given as 110%; the “Selectivity for small intestinal mass relative to colon mass (FIG. 6)” value is listed as “selectively increase small intestinal mass, relative to colon mass”. The “Sensitivity index Si/Colon” value with male C57BL mice [2] (setting [3]) is recorded as 1.16. Moreover, the “Colon-BW, compared to 1559 in %” value in the assay on male C57BL mice [2] (setting [5]) was 95%. In addition, the “SI-BW, compared to 1559 in %” value with male C57BL mice [2] (setting [6]) came to 110%.
For the substance “H-HGEGSFSDELKTILESLAAADFIEWLIQTKITDKKKKKK-NH2 [ZP2379]”, in the assay on male C57BL mice [1] (setting [3]), the “Sto-BW, compared to 1559 in %” value was 99%. The “Sensitivity index Stomach/Co” value in the assay on male C57BL mice [1] (setting [4]) worked out at 1.02. In addition, in the assay on male C57BL mice [2] (setting [3]), the “Colon-BW, compared to 1559 in %” value was determined as 97%; the “Organ selectivity” value was “unselective for the small intestine, colon or stomach”; the “SI-BW, compared to 1559 in %” value was 88%; the “Sensitivity index Si/Colon” value was 0.91.
For “H-HGEGSFSDELLTILELLAALDFIAWLIATKITDKKKKKK-NH2 [ZP2416]”, in the assay on male C57BL mice [1] (setting [3]), the “Selectivity for stomach mass relative to colon mass (FIG. 7)” value is recorded as “selectively increase stomach mass, relative to colon mass” and the “Sto-BW, compared to 1559 in %” value is recorded as 96%. Moreover, the “Sensitivity index Stomach/Co” value with male C57BL mice [1] (setting [4]) was found to be 1.04. Moreover, in the assay on male C57BL mice [2] (setting [3]), the “Colon-BW, compared to 1559 in %” value was 92%; the “Organ selectivity” value is on record as “unselective for the small intestine, colon or stomach”; the “SI-BW, compared to 1559 in %” value is reported as 89%; the “Sensitivity index Si/Colon” value turned out to be 0.97.
Take “H-HGEGSFSDELATILESLAAADFIAWLIATKITD-NH2 [ZP2414]”: in the assay with male C57BL mice [1] (setting [3]), the “Selectivity for stomach mass relative to colon mass (FIG. 7)” value is given as “selectively increase stomach mass, relative to colon mass” and the “Sto-BW, compared to 1559 in %” value amounted to 110%. In the assay with male C57BL mice [1] (setting [4]), the “Sensitivity index Stomach/Co” value worked out at 1.04. Further, in the assay on male C57BL mice [2] (setting [3]), the “Colon-BW, compared to 1559 in %” value came out at 106%; the “Organ selectivity” value is reported as “unselective for the small intestine, colon or stomach”; the “SI-BW, compared to 1559 in %” value came out at 105%; the “Sensitivity index Si/Colon” value turned out to be 0.99.
On to “H-HGEGSFSDELNTILESLAASDFISWLISTKITDKKKKKK-NH2 [ZP2382]”, for which the “Sto-BW, compared to 1559 in %” value with male C57BL mice [1] (setting [3]) is recorded as 101%. For the same substance, the “Sensitivity index Stomach/Co” value in the assay with male C57BL mice [1] (setting [4]) is 0.95. Also, in the assay on male C57BL mice [2] (setting [3]), the “Colon-BW, compared to 1559 in %” value turned out to be 106%; the “Organ selectivity” value was “unselective for the small intestine, colon or stomach”; the “SI-BW, compared to 1559 in %” value stood at 103%; the “Sensitivity index Si/Colon” value was found to be 0.97.
Take “H-HGEGSFSDELSTILEALAAADFIAWLIATKITDKKKKKK-NH2 [ZP2404]”: the “Sto-BW, compared to 1559 in %” value in the assay with male C57BL mice [1] (setting [3]) came out at 103%. For the same substance, the “Sensitivity index Stomach/Co” value in the assay on male C57BL mice [1] (setting [4]) is given as 0.90. Further, in the assay with male C57BL mice [2] (setting [3]), the “Colon-BW, compared to 1559 in %” value came to 115%; the “Organ selectivity” value is reported as “unselective for the small intestine, colon or stomach”; the “SI-BW, compared to 1559 in %” value came to 114%; the “Sensitivity index Si/Colon” value worked out at 0.99.
In the case of “H-HGEGSFSDELATILEALAAADFIAWLIATKITDKKKKKK-NH2 [ZP2402]”, the “Sto-BW, compared to 1559 in %” value with male C57BL mice [1] (setting [3]) stood at 102%. Also, in the assay with male C57BL mice [1] (setting [4]), the “Sensitivity index Stomach/Co” value amounted to 0.90. In the assay on male C57BL mice [2] (setting [3]), the “Colon-BW, compared to 1559 in %” value came out at 113%; the “Organ selectivity” value was “unselective for the small intestine, colon or stomach”; the “SI-BW, compared to 1559 in %” value was determined as 110%; the “Sensitivity index Si/Colon” value is listed as 0.97.
Consider “H-HGEGSFSDELATILEALAASDFIAWLIATKITD-NH2 [ZP2417]”, for which the “Sto-BW, compared to 1559 in %” value with male C57BL mice [1] (setting [3]) is 90%. For the same substance, the “Sensitivity index Stomach/Co” value in the assay on male C57BL mice [1] (setting [4]) is reported as 0.85. Also, the “Sensitivity index Stomach/Co” value in the assay with male C57BL mice [1] (ratio Stomach-BW / Colon-BW) is 0.85. In the assay on male C57BL mice [2] (setting [3]), the “Colon-BW, compared to 1559 in %” value was determined as 106%; the “Preferential stimulation of epithelial growth in the small intestine (summary)” value is recorded as “preferentially stimulating epithelial growth in the small intestine”; the “SI-BW, compared to 1559 in %” value came to 119%; the “Selectivity for small intestinal mass relative to colon mass (FIG. 6)” value is “selectively increase small intestinal mass, relative to colon mass”. In the assay with male C57BL mice [2] (setting [3]), the “Sensitivity index Si/Colon” value is given as 1.12. For the same substance, in the assay with male C57BL mice [2] (setting [5]), the “Colon-BW, compared to 1559 in %” value is listed as 106%. Also, the “SI-BW, compared to 1559 in %” value in the assay with male C57BL mice [2] (setting [6]) was 119%.
Take “H-HGEGSFSDELFTILEFLAASDFISWLISTKITDKKKKKK-NH2 [ZP2396]”: in the assay with male C57BL mice [1] (setting [3]), the “Preferential stimulation of epithelial growth in the stomach (summary)” value is listed as “preferentially stimulating epithelial growth in the stomach”; the “Selectivity for stomach mass relative to colon mass (FIG. 7)” value is “selectively increase stomach mass, relative to colon mass”; the “Sto-BW, compared to 1559 in %” value was found to be 117%. Further, the “Sensitivity index Stomach/Co” value with male C57BL mice [1] (setting [4]) is 1.15. For the same substance, the “Sensitivity index Stomach/Co” value in the assay with male C57BL mice [1] (ratio Stomach-BW / Colon-BW) was 1.16 and 1.15. For the same substance, in the assay on male C57BL mice [2] (setting [3]), the “Colon-BW, compared to 1559 in %” value came out at 102%; the “SI-BW, compared to 1559 in %” value turned out to be 104%; the “Sensitivity index Si/Colon” value stood at 1.02. For the same substance, the “Colon-BW, compared to 1559 in %” value in the assay with male C57BL mice [2] (setting [5]) was 102%. For the same substance, in the assay on male C57BL mice [2] (setting [6]), the “SI-BW, compared to 1559 in %” value was found to be 104%.
